Results reported in US20260027125A1, “AN ANTIBACTERIAL PARENTERAL FORMULATION AND METHODS THEREOF” (BUGWORKS RESEARCH INDIA PVT. LTD., priority 2022, published 2026).
Where a name gives a salt, the structure may show the parent alone.

Legend:
Experiment in all cases: microbe, parasite or virus in culture
Type in all cases: cell-based
Pseudomonas aeruginosa = system: Pseudomonas aeruginosa
Acinetobacter baumannii = system: Acinetobacter baumannii
Enterobacter cloacae = system: Enterobacter cloacae
Citrobacter freundii = system: Citrobacter freundii
[1] = system: Proteus mirabilis, vulgaris
Serratia marcescens = system: Serratia marcescens
Salmonella species = system: Salmonella species
Providencia spp. = system: Providencia spp.
Achromobacter spp. = system: Achromobacter spp.
Legionella pneumophila = system: Legionella pneumophila
Shigella sp. = system: Shigella sp.
Enterobacter aerogenes = system: Enterobacter aerogenes
Hemophilus influenzae = system: Hemophilus influenzae
[2] = system: Fusobacterium spp. (anaerobe)
[3] = system: Bacteroides fragilis (anaerobe)
[4] = Legionella pneumophila clinical isolates, N 35

In the case of `Cn1c(=O)ccc2ccc(F)c(CCNC[C@H]3CN(c4cnc5c(n4)NC(=O)CO5)C(=O)O3)c21` [compound of Formula (I) formate salt, (S)-6-(5-(((2-(7-fluoro-1-methyl-2-oxo-1,2-dihydroquinolin-8-yl)ethyl)amino)methyl)-2-oxooxazolidin-3-yl)-2H-pyrazino[2,3-b][1,4]oxazin-3(4H)-one formate], the “MIC Range, high end” value (Pseudomonas aeruginosa) was 8 µg/mL, the “MIC Range, low end” value (Pseudomonas aeruginosa) was under 0.015 µg/mL and the MIC50 (Pseudomonas aeruginosa; Pseudomonas aeruginosa) was 0.5 µg/mL. The MIC90 (Pseudomonas aeruginosa; Pseudomonas aeruginosa) was 1 µg/mL, the “MIC Range, high end” value (Acinetobacter baumannii) was 4 µg/mL and the “MIC Range, low end” value (Acinetobacter baumannii) was 0.03 µg/mL. For the same molecule, the MIC50 (Acinetobacter baumannii; Acinetobacter baumannii) was 0.25 µg/mL, the MIC90 (Acinetobacter baumannii; Acinetobacter baumannii) was 0.5 µg/mL and the “MIC Range, high end” value (Enterobacter cloacae) was 32 µg/mL. For the same molecule, the “MIC Range, low end” value (Enterobacter cloacae) was at most 0.015 µg/mL, the MIC50 (Enterobacter cloacae; Enterobacter cloacae) was 0.25 µg/mL and the MIC90 (Enterobacter cloacae; Enterobacter cloacae) was 1 µg/mL. For the same molecule, the “MIC Range, high end” value (Citrobacter freundii) was 8 µg/mL, the “MIC Range, low end” value (Citrobacter freundii) was 0.03 µg/mL and the MIC50 (Citrobacter freundii; Citrobacter freundii) was 0.25 µg/mL. For the same molecule, the MIC90 (Citrobacter freundii; Citrobacter freundii) was 1 µg/mL, the “MIC Range, high end” value [1] was 2 µg/mL and the “MIC Range, low end” value [1] was 0.03 µg/mL. The MIC50 ([1]; Proteus mirabilis) was 0.12 µg/mL, the MIC90 ([1]; Proteus mirabilis) was 0.5 µg/mL and the “MIC Range, high end” value (Serratia marcescens) was 32 µg/mL. The “MIC Range, low end” value (Serratia marcescens) was 0.03 µg/mL, the MIC50 (Serratia marcescens; Serratia marcescens) was 0.25 µg/mL and the MIC90 (Serratia marcescens; Serratia marcescens) was 1 µg/mL. For the same molecule, the “MIC Range, high end” value (Salmonella species) was 2 µg/mL, the “MIC Range, low end” value (Salmonella species) was 0.03 µg/mL and the MIC50 (Salmonella species; Salmonella) was 0.12 µg/mL. For the same molecule, the MIC90 (Salmonella species; Salmonella) was 0.25 µg/mL, the “MIC Range, high end” value (Providencia spp.) was 32 µg/mL and the “MIC Range, low end” value (Providencia spp.) was 0.06 µg/mL. For the same molecule, the MIC50 (Providencia spp.; Providencia) was 0.5 µg/mL, the MIC90 (Providencia spp.; Providencia) was 2 µg/mL and the “MIC Range, high end” value (Achromobacter spp.) was 0.5 µg/mL. The “MIC Range, low end” value (Achromobacter spp.) was at most 0.015 µg/mL, the MIC50 (Achromobacter spp.; Achromobacter) was 0.06 µg/mL and the MIC90 (Achromobacter spp.; Achromobacter) was 0.12 µg/mL. The MIC50 (Legionella pneumophila; Legionella pneumophila) was at most 0.015 µg/mL, the MIC90 (Legionella pneumophila; Legionella pneumophila) was at most 0.015 µg/mL and the “MIC Range, high end” value (Legionella pneumophila; [4]) was at most 0.015 µg/mL. The “MIC Range, low end” value (Legionella pneumophila; [4]) was at most 0.015 µg/mL, the “MIC Range, high end” value (Shigella sp.) was 0.25 µg/mL and the “MIC Range, low end” value (Shigella sp.) was at most 0.015 µg/mL. For the same molecule, the MIC50 (Shigella sp.; Shigella) was 0.03 µg/mL, the MIC90 (Shigella sp.; Shigella) was 0.06 µg/mL and the “MIC Range, high end” value (Enterobacter aerogenes) was 0.25 µg/mL. The “MIC Range, low end” value (Enterobacter aerogenes) was 0.25 µg/mL, the MIC50 (Enterobacter aerogenes; Klebsiella aerogenes) was 0.25 µg/mL and the MIC90 (Enterobacter aerogenes; Klebsiella aerogenes) was 0.25 µg/mL. The “MIC Range, high end” value (Hemophilus influenzae) was at most 0.015 µg/mL, the “MIC Range, low end” value (Hemophilus influenzae) was at most 0.015 µg/mL and the MIC50 (Hemophilus influenzae; Haemophilus influenzae) was at most 0.015 µg/mL. The MIC90 (Hemophilus influenzae; Haemophilus influenzae) was at most 0.015 µg/mL, the “MIC Range, high end” value [2] was 0.5 µg/mL and the “MIC Range, low end” value [2] was at most 0.015 µg/mL. For the same molecule, the MIC50 ([2]; Fusobacterium) was at most 0.015 µg/mL, the MIC90 ([2]; Fusobacterium) was at most 0.015 µg/mL and the “MIC Range, high end” value [3] was 8 µg/mL. The “MIC Range, low end” value [3] was at most 0.015 µg/mL.
